In PubChem BioAssay AID1963451 (Molecular Pharmacology Branch, DTP, NCI, 2024):
“And” between values parts separate entries of the source, which are not always exact repeats. Identical values can stand only once.

Tested on: 521955-158-R6-J3-PDC complex spheroid growth, % test/control
Assay: Anticancer human tumor 521955-158-R6-J3-PDC patient-derived pancreatic carcinoma cell line growth inhibition [Asc]
Conditions: for viability, T/C: stronger effect = lower value
How it was run: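 Complex solid-tumor spheroids incorporating human endothelial and mesenchymal stem cells received single agents or combinations over half-log dilution ranges anchored to clinical Cmax.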

[1] = curve of first compound, second compound 0.0316 µM
[2] = curve of first compound, second compound 0.1 µM
[3] = curve of first compound, second compound 0.316 µM
[4] = curve of first compound, second compound 1 µM
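Further: spheroids exposed to compounds for 7 days.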
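Wherever viability, T/C is given: 100% = DMSO vehicle control wells.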

CCN1C(C(=O)NC23CCC(C(=O)O)(CC2)CC3)C(c2cccc(Cl)c2F)C2(C(=O)Nc3cc(Cl)ccc32)C12CCCCC2 (stereo not drawn) + Cc1c(S(C)(=O)=O)c(-c2cc(F)cc(N3CCN(c4ccc(NS(=O)(=O)c5ccc(NC(CCN6CCC(C(=O)OCCCP(=O)(O)O)CC6)CSc6ccccc6)c(S(=O)(=O)C(F)(F)F)c5)cc4)CC3)c2)c(-c2ccc(Cl)cc2)n1C(C)C
IC50 [1]: > 3000 nM
IC50 [2]: > 3000 nM
IC50 [3]: < 9.49 nM
IC50 [4]: < 9.49 nM
IC50 (curve of first compound, second compound 3.16 µM): < 9.49 nM
IC50 (curve of first compound, second compound 10 µM): < 9.49 nM
viability, T/C (second compound 0.0316 µM, first compound 0.00949 µM): 102%
viability, T/C (second compound 0.0316 µM, first compound 0.03 µM): 78.8%
viability, T/C (second compound 0.0316 µM, first compound 0.0949 µM): 72.6%
viability, T/C (second compound 0.0316 µM, first compound 0.3 µM): 70.7%
viability, T/C (second compound 0.0316 µM, first compound 0.949 µM): 84.2%
viability, T/C (second compound 0.0316 µM, first compound 3 µM): 73.2%
viability, T/C (second compound 0.1 µM, first compound 0.00949 µM): 77.7%
viability, T/C (second compound 0.1 µM, first compound 0.03 µM): 75.7%
viability, T/C (second compound 0.1 µM, first compound 0.0949 µM): 67.4%
viability, T/C (second compound 0.1 µM, first compound 0.3 µM): 66.5%
viability, T/C (second compound 0.1 µM, first compound 0.949 µM): 69.4%
viability, T/C (second compound 0.1 µM, first compound 3 µM): 50.8%
viability, T/C (second compound 0.316 µM, first compound 0.00949 µM): 49.2%
viability, T/C (second compound 0.316 µM, first compound 0.03 µM): 51.8%
viability, T/C (second compound 0.316 µM, first compound 0.0949 µM): 44%
viability, T/C (second compound 0.316 µM, first compound 0.3 µM): 45.4%
viability, T/C (second compound 0.316 µM, first compound 0.949 µM): 41.2%
viability, T/C (second compound 0.316 µM, first compound 3 µM): 31.7%
viability, T/C (second compound 1 µM, first compound 0.00949 µM): 41.2%
viability, T/C (second compound 1 µM, first compound 0.03 µM): 25.7%
viability, T/C (second compound 1 µM, first compound 0.0949 µM): 39.5%
viability, T/C (second compound 1 µM, first compound 0.3 µM): 35%
viability, T/C (second compound 1 µM, first compound 0.949 µM): 30.6%
viability, T/C (second compound 1 µM, first compound 3 µM): 25.2%
viability, T/C (second compound 3.16 µM, first compound 0.00949 µM): 19.7%
viability, T/C (second compound 3.16 µM, first compound 0.03 µM): 17.3%
viability, T/C (second compound 3.16 µM, first compound 0.0949 µM): 17.5%
viability, T/C (second compound 3.16 µM, first compound 0.3 µM): 14.9%
viability, T/C (second compound 3.16 µM, first compound 0.949 µM): 13.9%
viability, T/C (second compound 3.16 µM, first compound 3 µM): 9.12%
viability, T/C (second compound 10 µM, first compound 0.00949 µM): 14.6%
viability, T/C (second compound 10 µM, first compound 0.03 µM): 11.3%
viability, T/C (second compound 10 µM, first compound 0.0949 µM): 15.8%
viability, T/C (second compound 10 µM, first compound 0.3 µM): 9.21%
viability, T/C (second compound 10 µM, first compound 0.949 µM): 18.1%
viability, T/C (second compound 10 µM, first compound 3 µM): 1.44%

CCN1CCN(Cc2ccc(Nc3ncc(F)c(-c4cc(F)c5nc(C)n(C(C)C)c5c4)n3)nc2)CC1 + CNC(C)C(=O)NC1CN(S(=O)(=O)c2cccc(S(=O)(=O)N3CCC4CCC(C(=O)NC(c5ccccc5)c5ccccc5)N4C(=O)C(NC(=O)C(C)NC)C3)c2)CCC2CCC(C(=O)NC(c3ccccc3)c3ccccc3)N2C1=O
IC50 (curve of first compound, second compound 0.00316 µM): > 1000 nM
IC50 (curve of first compound, second compound 0.01 µM): > 1000 nM
IC50 [1]: > 1000 nM
IC50 [2]: > 1000 nM
IC50 [3]: > 1000 nM
IC50 [4]: > 1000 nM
viability, T/C (second compound 0.00316 µM, first compound 0.00316 µM): 174%
viability, T/C (second compound 0.00316 µM, first compound 0.01 µM): 141%
viability, T/C (second compound 0.00316 µM, first compound 0.0316 µM): 140%
viability, T/C (second compound 0.00316 µM, first compound 0.1 µM): 153%
viability, T/C (second compound 0.00316 µM, first compound 0.316 µM): 136%
viability, T/C (second compound 0.00316 µM, first compound 1 µM): 120%
viability, T/C (second compound 0.01 µM, first compound 0.00316 µM): 94.2%
viability, T/C (second compound 0.01 µM, first compound 0.01 µM): 76.4%
viability, T/C (second compound 0.01 µM, first compound 0.0316 µM): 86.1%
viability, T/C (second compound 0.01 µM, first compound 0.1 µM): 75.9%
viability, T/C (second compound 0.01 µM, first compound 0.316 µM): 74.9%
viability, T/C (second compound 0.01 µM, first compound 1 µM): 86.4%
viability, T/C (second compound 0.0316 µM, first compound 0.00316 µM): 103%
viability, T/C (second compound 0.0316 µM, first compound 0.01 µM): 82.1%
viability, T/C (second compound 0.0316 µM, first compound 0.0316 µM): 73.6%
viability, T/C (second compound 0.0316 µM, first compound 0.1 µM): 83.4%
viability, T/C (second compound 0.0316 µM, first compound 0.316 µM): 83.6%
viability, T/C (second compound 0.0316 µM, first compound 1 µM): 92.1%
viability, T/C (second compound 0.1 µM, first compound 0.00316 µM): 107%
viability, T/C (second compound 0.1 µM, first compound 0.01 µM): 114%
viability, T/C (second compound 0.1 µM, first compound 0.0316 µM): 102%
viability, T/C (second compound 0.1 µM, first compound 0.1 µM): 75.9%
viability, T/C (second compound 0.1 µM, first compound 0.316 µM): 88.2%
viability, T/C (second compound 0.1 µM, first compound 1 µM): 100%
viability, T/C (second compound 0.316 µM, first compound 0.00316 µM): 87.4%
viability, T/C (second compound 0.316 µM, first compound 0.01 µM): 78.8%
viability, T/C (second compound 0.316 µM, first compound 0.0316 µM): 71%
viability, T/C (second compound 0.316 µM, first compound 0.1 µM): 66.5%
viability, T/C (second compound 0.316 µM, first compound 0.316 µM): 67.1%
viability, T/C (second compound 0.316 µM, first compound 1 µM): 71%
viability, T/C (second compound 1 µM, first compound 0.00316 µM): 86.3%
viability, T/C (second compound 1 µM, first compound 0.01 µM): 81.3%
viability, T/C (second compound 1 µM, first compound 0.0316 µM): 71.8%
viability, T/C (second compound 1 µM, first compound 0.1 µM): 72.8%
viability, T/C (second compound 1 µM, first compound 0.316 µM): 77.3%
viability, T/C (second compound 1 µM, first compound 1 µM): 83.9%

C=C(F)C(=O)N1CCN(c2nc(OCC3CCCN3C)nc3c2CCN(c2cccc4cccc(Cl)c24)C3)CC1CC#N (stereo not drawn)
viability, T/C (compound 0.0316 µM): 102% (2×) and 93.7%
viability, T/C (compound 0.1 µM): 93.2% and 115% and 87.3%
viability, T/C (compound 0.316 µM): 78.6% and 89.8% and 90.9%
viability, T/C (compound 1 µM): 89.2% and 87.9% and 95.7%
viability, T/C (compound 3.16 µM): 83.7% and 86.3% and 93.3%
viability, T/C (compound 10 µM): 0.33% and 0.31% and 0.93%
IC50 (curve of compound): 5040 nM and 4980 nM and 5380 nM

CCN1CCN(Cc2ccc(Nc3ncc(F)c(-c4cc(F)c5nc(C)n(C(C)C)c5c4)n3)nc2)CC1
viability, T/C (compound 0.00316 µM): 88.9% and 113% and 94.9%
viability, T/C (compound 0.01 µM): 105% and 115% and 102%
viability, T/C (compound 0.0316 µM): 77.9% and 87.5% and 87.9%
viability, T/C (compound 0.1 µM): 86.7% and 105% and 94.8%
viability, T/C (compound 0.316 µM): 85.5% and 74.2% and 83.4%
viability, T/C (compound 1 µM): 87.4% and 96.5% and 91.6%
IC50 (curve of compound): > 1000 nM
